Experiment [1] has as its system CUTO-14 tumors (EGFR-Exon 20 insertion ASV). In words: Tumor growth in athymic nude mice bearing CUTO-14 tumors. The format is in vivo. Here is the method:
To determine the ability of Compound No. 6 to inhibit tumor growth and induce tumor regression in vivo, a mouse tumor model containing the EGFR-Exon 20 insertion ASV (CUTO-14) mutation was used. Athymic nude mice from Charles River Labs bearing CUTO-14 tumors were treated with Compound No. 6 at either 50 mg/kg once per day (QD) or 25 mg/kg twice per day (BID) over the indicated time course, and tumor volume was measured. Tumor volume was analyzed to assess the effect of Compound No. 6 on tumor growth and regression.

In the next experiment the target is WT-EGFR (A431 cell line) (Homo sapiens, UniProt P00533). In words: A431 cell proliferation (Cell Titer Glo), WT-EGFR. The format is cell-based. The note with it: A431 cells, 72 hours. Here is the method: To determine the ability of Compound No. 6 to target wild type HER2, wild type EGFR, and relevant mutants of each, a panel of BaF3 cell lines and the A431 cell line were dosed and assessed in cell proliferation assays. The BaF3 parental cell line is normally dependent on IL-3 for proliferation, but when transformed with active tyrosine kinase can grow in the absence of IL-3. However, when transformed kinase activity is inhibited by a targeted small molecule the associated proliferation is reduced in proportion to the extent of inhibition. […] Proliferation was assessed using the Cell Titer Glo cell proliferation kit (Promega # G7573). […] Cell Titer Glo was added to plated cells at 15 ul per well, the plate was shaken for 20 minutes at room temperature, and luminescence was measured using Victor X3 Multimode plate reader (Perkin Elmer), Cell Titer Glo readings were taken following 72 hours (T72) after addition of Compound No. 6. […]
Chain of WT-EGFR (A431 cell line) (P00533 25-1210): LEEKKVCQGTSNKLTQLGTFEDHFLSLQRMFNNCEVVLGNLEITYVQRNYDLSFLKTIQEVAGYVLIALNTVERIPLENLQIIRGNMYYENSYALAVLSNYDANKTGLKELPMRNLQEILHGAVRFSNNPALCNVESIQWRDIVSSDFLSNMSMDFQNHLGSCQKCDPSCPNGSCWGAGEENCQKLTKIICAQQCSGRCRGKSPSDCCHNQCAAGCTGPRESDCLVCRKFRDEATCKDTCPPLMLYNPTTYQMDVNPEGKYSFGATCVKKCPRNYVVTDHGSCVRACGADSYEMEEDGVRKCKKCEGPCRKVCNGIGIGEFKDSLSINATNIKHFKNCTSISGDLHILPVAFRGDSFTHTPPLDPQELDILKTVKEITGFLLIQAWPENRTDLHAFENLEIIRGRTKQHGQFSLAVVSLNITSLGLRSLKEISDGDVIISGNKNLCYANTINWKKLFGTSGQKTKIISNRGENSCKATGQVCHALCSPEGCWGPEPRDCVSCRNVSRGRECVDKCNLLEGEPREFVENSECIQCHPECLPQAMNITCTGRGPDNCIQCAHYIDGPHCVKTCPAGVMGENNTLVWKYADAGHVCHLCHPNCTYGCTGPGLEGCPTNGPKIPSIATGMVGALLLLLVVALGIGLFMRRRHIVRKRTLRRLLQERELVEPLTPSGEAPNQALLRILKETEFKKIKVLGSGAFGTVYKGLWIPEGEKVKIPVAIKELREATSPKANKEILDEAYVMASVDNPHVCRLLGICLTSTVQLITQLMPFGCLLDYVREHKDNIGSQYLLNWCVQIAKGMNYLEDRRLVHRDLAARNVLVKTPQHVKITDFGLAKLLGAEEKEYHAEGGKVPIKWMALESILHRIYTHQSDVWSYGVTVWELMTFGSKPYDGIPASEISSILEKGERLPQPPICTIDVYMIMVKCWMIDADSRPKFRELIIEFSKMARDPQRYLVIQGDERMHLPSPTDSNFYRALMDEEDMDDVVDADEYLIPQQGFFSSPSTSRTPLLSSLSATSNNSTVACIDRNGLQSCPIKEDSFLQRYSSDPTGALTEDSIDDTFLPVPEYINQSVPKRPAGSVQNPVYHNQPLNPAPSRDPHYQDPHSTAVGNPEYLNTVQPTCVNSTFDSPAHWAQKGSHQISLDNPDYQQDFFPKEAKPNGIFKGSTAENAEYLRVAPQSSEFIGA
The BaF3 parental cell line is normally dependent on IL-3 for proliferation, but when transformed with active tyrosine kinase can grow in the absence of IL-3. […] Proliferation was assessed using the Cell Titer Glo cell proliferation kit (Promegaf# G7573). […] Cell Titer Glo was added to plated cells at 15 ul per well, the plate was shaken for 20 minutes at room temperature, and luminescence was measured using Victor X3 Multimode plate reader (Perkin Elmer). […]

The values below come from patent US11034672B1, “Tyrosine kinase inhibitor compositions, methods of making and methods of use” (Black Diamond Therapeutics, Inc., priority 2018, dated 2021).

For `C=CC(=O)Nc1cc2c(Nc3cc(Cl)c(OCc4cccc(F)c4)cc3F)ncnc2cc1OCCN1CCOCC1` [compound 6], the Tumor volume entry in experiment [1] (25 mg/kg twice per day (BID), FIG. 32) is “decreased”; in experiment [1] (50 mg/kg once per day (QD), FIG. 32), “decreased”. This compound gave an IC50 against WT-EGFR (A431 cell line) greater than 100 nM.

As for `C=CC(=O)Nc1cc2c(Nc3ccc(OCc4ccccn4)c(Cl)c3)ncnc2cc1OCCN1CCOCC1` [compound 8], the Tumor volume entry in experiment [1] (30 mg/kg once per day (QD), FIG. 31) is on record as “decreased”; in experiment [1] (50 mg/kg twice per day (BID), FIG. 31) it was “decreased”. The compound also returned an IC50 on WT-EGFR (A431 cell line) greater than 100 nM.
